What all share (format): physicochemical
A short description of data set [1]: Tapped density (PT-TD200 Tap Density Tester). The procedure: On the other hand, tapped density, also called compacted density, of a powder is the ratio of the mass of the powder to the volume occupied by the powder after it has been tapped for a defined period of time. Tapped density is measured by first gently introducing a known sample mass into a graduated cylinder and carefully levelling the powder without compacting it. The cylinder is then mechanically tapped by raising the cylinder and allowing it to drop under its own weight using a suitable mechanical tapped density tester that provides a suitable fixed drop distance and nominal drop rate
(§1) Bulk density and tapped density can be measured according to the method disclosed in the European Pharmacopoeia section 2.9.34 (Bulk density and tapped density of powders), for example, the bulk density may be measured using the PT-SV100 Scott Volumeter and the tapped density may be measured using the PT-TD200 Tap Density Tester (Pharma Test Apparatebau AG, Germany).
(§2) The bulk density was measured using a PT-SV100 Scott Volumeter (Pharma Test) and the tapped density was measured using a PT-TD200 Tap Density Tester (Pharma Test).

A short description of data set [2]: Bulk density (PT-SV100 Scott Volumeter).
From the text: The bulk density, also called apparent density, can be defined as the ratio of the mass to the volume of an untapped powder sample, as "poured". The bulk density is given in grams per millilitre (g/ml) and is typically calculated by "pouring" a known mass of powder into a graduated cylinder.
as §1, §2

The nature of data set [3]: Hausner ratio calculated from bulk and tapped density. The procedure:
Hausner ratio is also predictive of powder flow, and is calculated according to the following formula: Hausner ratio = (Density (tapped))/(Density (bulk)) […] [formula]
In this case, a Hausner ratio greater than 1.34 is generally considered to be an indication of poor flowability.
(§3) The relationship between Carr index and/or Hausner ratio with powder flowability is well recognized in the art, for example, as disclosed by M. E. Aulton, in "Powder flow", chapter 12 of the well-recognized reference book in pharmaceutical technology "Aulton's Pharmaceutics. The design and manufacture of medicines", Fifth Edition 2018, M.E. Aulton and K.M.G. Taylor, Editors, Elsevier Ltd, as summarized in the following table: […]

Data set [4] can be described thus: Particle size by sieving. Conditions: compacted product passed through a sieve of 800 micron opening; 100% of the particles. The source says:
The compactor was connected to a rotor granulator for milling the outcoming compacted plaque. The granulation speed was fixed to 70 r.p.m. and the obtained granulate was passed through a sieve of 800 micron opening.

Data set [5] can be described thus: Angle of repose from radius and height of the poured cone. The conditions noted are these: tan^-1 (height/radius) of the cone after pouring. The source says: The "angle of repose" is another parameter for indirectly quantifying powder flowability. It is the angle at which a material will rest on a stationary heap, specifically, is the angle formed by the heap slope and the horizontal plane. It may be calculated by different methods, commonly, just pouring the material on a flat surface. It also can be calculated as "drained angle of repose", as the angle measured on the internal conical face of a material which has been formed when drained from an orifice of a flat-bottomed container to the horizontal. A dynamic angle of repose can also be used, which is the angle to the horizontal of the free surface formed in a relatively slowly rotating drum (Aulton, op. cit., pg. 197).
In this case, the lower the value of the angle of repose, the higher the flowability of the material. It is generally considered that an angle of repose higher than 45 correlates with poor flowability, whereas an angle of repose under 30 correlates with excellent flowability.
The angle of repose was determined by measuring the radius and the height of the cone formed after pouring the powder, using the formula tan^-1 (height/radius).

Data set [6] in a line: Flow rate.
The nature of data set [7]: Carr index (compressibility) calculated from bulk and tapped density. The procedure:
The Carr index, also called Carr's index or compressibility index, is calculated according to the following formula: Carr index = (Density (tapped)−Density (bulk))/(Density (tapped)) × 100 [formula]
Free flowing powders have smaller values of the Carr index than poor flowing powders. In general, a Carr index greater than 25 is considered to be an indication of poor flowability, and below 15, of good flowability.
as §3

Data set [8] can be described thus: Aspect (visual appearance) of the powder or granules. The source says: It can be observed that the non-compacted material has damp and agglomerated appearance, whereas the compacted product has dry, non-agglomerated, flowable appearance.
Data set [9] is described as follows: Handling observed during manufacture of capsules and tablets. The procedure:
All ingredients were added to a Turbula mixer, blended during 15 minutes, and filled into capsules of 00 size.
Furthermore, the powder mixture was easily blended and good homogeneity was easily achieved, without segregation of the ingredients.
All ingredients were mixed in Turbula mixer during about 15 minutes and compressed into tablets.
The powder mixture was easily blended and had good homogeneity, without segregation of the ingredients.

The mark [10] stands for this setting: general description of the starting material, 'for example' value.

Like-named read-outs stand apart in the source and are kept apart here.

With `COC1=C(OC)C(=O)C(C/C=C(\C)CC/C=C(\C)CC/C=C(\C)CC/C=C(\C)CC/C=C(\C)CC/C=C(\C)CC/C=C(\C)CC/C=C(\C)CC/C=C(\C)CCC=C(C)C)=C(C)C1=O` [Non-compacted CoQ10 (starting material), 2-[(2E,6E,10E,14E,18E,22E,26E,30E,34E)-3,7,11,15,19,23,27,31,35,39-Decamethyltetraconta-2,6,10,14,18,22,26,30,34,38-decaenyl]-5,6-dimethoxy-3-methylcyclohexa-2,5-diene-1,4-dione], the Tapped density in data set [1] was determined as 0.34 g/mL. Further, in data set [1] (setting [10]), the “tapped (or compacted) density” value was “about 0.34 mg/ml”. For the same molecule, the Bulk density in data set [2] and in data set [2] (listed as coenzyme Q10 raw material) was 0.22 g/mL throughout. For the same molecule, the “bulk (or apparent) density” value in [2] (setting [10]) is listed as “about 0.22 mg/ml”. Besides, the Hausner ratio in data set [3] is 1.55. Also, the particle size entry in data set [4] was “less than 800 microns”. Further, the Angle of repose in data set [5] turned out to be 45°. Besides, the Flow rate entry in [6] is recorded as “Slow, the material sticks to the walls”. For the same molecule, the “Compressibility (Carr Index)” value in data set [7] is 35.3%. The Aspect result in data set [8] is “Orange powder with damp, agglomerated appearance, hygroscopic”.

`COC1=C(OC)C(=O)C(C/C=C(\C)CC/C=C(\C)CC/C=C(\C)CC/C=C(\C)CC/C=C(\C)CC/C=C(\C)CC/C=C(\C)CC/C=C(\C)CC/C=C(\C)CCC=C(C)C)=C(C)C1=O` [Compacted CoQ10 (Example 1), 2-[(2E,6E,10E,14E,18E,22E,26E,30E,34E)-3,7,11,15,19,23,27,31,35,39-Decamethyltetraconta-2,6,10,14,18,22,26,30,34,38-decaenyl]-5,6-dimethoxy-3-methylcyclohexa-2,5-diene-1,4-dione] registered a Tapped density in [1] of 0.57 g/mL. For the same molecule, the Bulk density in data set [2] and in data set [2] (listed as compacted coenzyme Q10) was 0.52 g/mL in each case. The Hausner ratio in [3] was 1.10. The particle size entry in [4] is reported as “less than 800 microns”. Moreover, the “flowability and adherence during tablet preparation” value in data set [9] (30 mg tablets by direct compression, Turbula mixer about 15 minutes) was “good flowability and did not adhere neither to the walls of vessels and mixers nor to the punches and dies of the tableting machine”. In addition, the “flowability and adherence during capsule preparation” value in data set [9] (100 mg hard gelatin capsules, Turbula mixer 15 minutes) is “good flowability and did not adhere to the walls of vessels and mixers”. Also, the Angle of repose in data set [5] is 10°. Also, the Flow rate result in data set [6] is given as “Three times faster than for uncompacted CoQ10. The material does not stick to the walls”. Further, the “Compressibility (Carr Index)” value in [7] is listed as 8.78%. In addition, the Aspect result in data set [8] was “Orange granules without agglomerates, highly flowable and with dry appearance”.
